In PMC6581923 (Journal of Molecular Neuroscience, 2018):
Entries after “also recorded” stand apart in the source; their conditions may differ.

How the values were obtained:
[1] = tested on: retina (BCCAO-induced retinopathy); experiment: Retinal layer thickness / morphology after bilateral carotid artery occlusion (BCCAO), eye drops; type: in vivo, rat (male); details: for Retinoprotective efficacy of eye drops, overall / compared with untagged peptide: topical eye drops in SOCB
Description: Adult male rat litters were housed in the animal facility in individual cages in a 12 h light-dark cycle with food and water ad libitum. Animal housing, care and application of experimental procedures were in accordance with institutional guidelines under approved protocols (No: BA02/2000–26/2017, University of Pecs). Under isoflurane anesthesia, common carotid arteries were exposed on both sides through a midline incision and then ligated with a 3–0 filament. A group of animals (sham group) underwent all steps of the operating procedure except ligation of the carotid arteries. Immediately following the operation, the right eye of the animals was treated with derivatives of PACAP (PACAP-TAT /n = 17/ or VIP-TAT /n = 17/) eye drops (1 μg/drop). Dose and schedule of the eye drop treatments were based on our previous experiments (Werling et al. [2016]). In the experiment for histological analysis, the different derivatives were dissolved in benzalkonium solution for ophthalmic use (solutio ophthalmica cum benzalkonio (SOCB)). The left eye, serving as a control, was treated with vehicle containing neither PACAP-TAT nor VIP-TAT. Animals were treated for five consecutive days, twice a day with one drop of drug, under brief isoflurane anesthesia (max. 5 min).
Fourteen days after the operation, rats (n = 10 SHAM and n = 24 BCCAO) were killed with anesthetic and the eyes were processed for histology. The eyes were removed and the retinas were solved in phosphate buffered saline (PBS), fixed in 4% paraformaldehyde dissolved in 0.1 M phosphate buffer (PB) (Sigma, Budapest, Hungary) and embedded in Durcupan ACM resin (Sigma, Budapest, Hungary). Retinas were cut at 2 μm and stained with toluidine blue dye (Sigma, Hungary). Sections were mounted in DPX medium (Sigma, Hungary) and photographs were taken with a digital CCD camera using the Spot program. Central retinal areas within 1 mm from the optic nerve were used (n = 5 measurements from one tissue block). The following parameters were measured: (i) cross-section of the retina from the outer limiting membrane (OLM) to the inner limiting membrane (ILM), (ii) the width of individual retinal layers (outer nuclear layer [ONL], outer plexiform layer [OPL], inner nuclear layer [INL], inner plexiform layer [IPL]), (iii) the number of cells/100 μm section length in the GCL, and the (iv) number of cells/[…]. Results are presented as mean ± SEM. Statistical comparisons were made using the two-way ANOVA test followed by Tukey’s post hoc analysis.
Fig. 4 Quantification of retinal layers in SHAM+SOCB, in SHAM+PACAP-TAT, in BCCAO+SOCB, and in BCCAO+PACAP-TAT animals; the right eye was treated with PACAP-TAT eye drops, the left eye served as controls receiving only SOCB. Comparison of all retinal layers (a–e). […] Statistical significance (*p < 0.05 vs. SHAM+SOCB retinas, #p < 0.05 vs. BCCAO+SOCB retinas) was calculated by two-way ANOVA followed by Fischer’s post hoc test
Fig. 6 Quantification of retinal layers in SHAM+SOCB, in SHAM+VIP-TAT, in BCCAO+SOCB, and in BCCAO+VIP-TAT animals; the right eye was treated with VIP-TAT eye drops, the left eye served as control receiving only SOCB. Comparison of all retinal layers (a–e). […] Statistical significance (*p < 0.05 vs. SHAM+SOCB retinas, #p < 0.05 vs. BCCAO+SOCB retinas) was calculated by two-way ANOVA followed by Fischer’s post hoc test

PAC1-R = molecular target: T1, PAC1-R (Homo sapiens, UniProt P41586); experiment: cAMP accumulation assay in PAC1-CHO cells; type: cell-based
T1 construct: expressed in transfected cells; host or cells: PAC1-CHO cells (CHO cells expressing PAC1-R); That they are transfected is inferred from the cell line's name
T1 sequence (P41586 21-468): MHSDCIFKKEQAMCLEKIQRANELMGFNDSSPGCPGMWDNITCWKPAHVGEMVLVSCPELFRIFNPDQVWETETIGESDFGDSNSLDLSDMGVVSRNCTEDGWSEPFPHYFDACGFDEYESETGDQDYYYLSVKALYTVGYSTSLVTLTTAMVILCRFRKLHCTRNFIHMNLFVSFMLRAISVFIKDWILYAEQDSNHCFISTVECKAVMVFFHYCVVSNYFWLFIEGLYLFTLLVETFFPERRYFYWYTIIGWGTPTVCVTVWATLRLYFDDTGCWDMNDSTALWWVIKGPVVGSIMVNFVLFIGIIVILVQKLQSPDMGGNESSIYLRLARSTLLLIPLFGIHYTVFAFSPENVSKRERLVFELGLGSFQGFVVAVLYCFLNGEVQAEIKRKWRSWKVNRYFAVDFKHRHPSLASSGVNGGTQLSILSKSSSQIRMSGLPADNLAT
Description: PAC1-CHO cells cultured in Dulbecco’s Modified Eagle’s Medium (DMEM) at 37 °C were scraped off the surface with rubber policeman, washed twice with PBS and the density of the cells was adjusted to 2 × 10^6 /mL. Peptides were added to 500 uL cells suspension with the corresponding varying working concentrations of the detected factor. After incubation at 37 °C for 5-10 min cells were harvested and the lysates were subjected to cAMP quantification using the enzyme immunoassay kit for cAMP (Biyuntian, Shanghai, China), following the manufacturer’s instructions. Protein concentration of each sample was determined using BCA assay, and the cAMP level of each sample was calculated following the formula: cAMP level (pmol/mg protein) = cAMP concentration (pmol/mL)/protein concentration (mg/mL). The cAMP level in each sample was plotted as the percentage (%) of the maximal cAMP level in cells treated with PACAP27 versus the logarithmic value of the peptide concentrations. All experiments were run with at least four parallel samples and were repeated three times.
The data are means ± SEM of four experiments

SMILES: CC[C@H](C)[C@H](NC(=O)[C@H](CO)NC(=O)[C@H](CC(N)=O)NC(=O)[C@H](CC(C)C)NC(=O)[C@H](Cc1ccc(O)cc1)NC(=O)[C@H](CCCCN)NC(=O)[C@H](CCCCN)NC(=O)[C@@H](NC(=O)[C@H](C)NC(=O)[C@H](CCSC)NC(=O)[C@H](CCC(N)=O)NC(=O)[C@H](CCCCN)NC(=O)[C@H](CCCNC(=N)N)NC(=O)[C@H](CC(C)C)NC(=O)[C@H](CCCNC(=N)N)NC(=O)[C@@H](NC(=O)[C@H](Cc1ccc(O)cc1)NC(=O)[C@H](CC(N)=O)NC(=O)[C@H](CC(=O)O)NC(=O)[C@@H](NC(=O)[C@H](Cc1ccccc1)NC(=O)[C@@H](NC(=O)[C@H](C)NC(=O)[C@H](CC(=O)O)NC(=O)[C@H](CO)NC(=O)[C@@H](N)Cc1c[nH]cn1)C(C)C)[C@@H](C)O)[C@@H](C)O)C(C)C)C(=O)N[C@@H](CC(C)C)C(=O)N[C@@H](CC(N)=O)C(=O)NCC(=O)N[C@@H](CCCNC(=N)N)C(=O)N[C@@H](CCCCN)C(=O)N[C@@H](CCCCN)C(=O)N[C@@H](CCCNC(=N)N)C(=O)N[C@@H](CCCNC(=N)N)C(=O)N[C@@H](CCC(N)=O)C(=O)N[C@@H](CCCNC(=N)N)C(=O)N[C@@H](CCCNC(=N)N)C(=O)N[C@@H](CCCNC(=N)N)C(=O)N1CCC[C@H]1C(=O)N[C@@H](CCC(N)=O)C(=O)O [VIP-TAT]
- OPL preservation after BCCAO ([1]; BCCAO + eye drops, OPL almost disappeared in several BCCAO-induced degenerated retinas): preserved
- Retinal degeneration in light microphotographs after BCCAO ([1]; BCCAO + eye drops, toluidine blue sections, 14 days, severe degeneration in BCCAO+SOCB): only mild degeneration
- Retinoprotective efficacy of eye drops, overall / compared with untagged peptide ([1]; BCCAO): attenuate ischemic retinal degeneration via the PAC1 receptor
- Retinoprotective efficacy of eye drops, overall / compared with untagged peptide ([1]; BCCAO, listed as TAT-bound VIP): a similar degree of protection
- Retinoprotective efficacy of eye drops, overall / compared with untagged peptide ([1]; BCCAO, listed as VIP bound to TAT peptide): could effectively traverse the ocular barriers and exert a neuroprotective effect in the retina; also recorded: much stronger retinoprotective effects when bound to TAT
- Retinal layer thickness (OLM-ILM, ONL, OPL, INL, IPL) after BCCAO ([1]; BCCAO, eye drops 1 μg/drop, twice a day, five consecutive days, in SOCB, right eye, left eye SOCB control, 14 days, p < 0.05 vs. BCCAO+SOCB): significant amelioration in all retinal layers; also recorded: improved the structure of all the retinal layers
- Change of retinal thickness in sham animals ([1]; eye drops alone in sham animals, 1 μg/drop, twice a day, five consecutive days, in SOCB, histology 14 days after operation): did not cause any changes in the retinal thickness
- EC50 as fraction of the EC50 of VIP (PAC1-R; VIP-TAT vs VIP): about 1/200
- Effect of TAT-tagging on activation of PAC1-R (cAMP), in words (PAC1-R; tagged vs untagged peptide): enhanced the activity of VIP on the activation of PAC1-R
